Nine compounds from ChEMBL document CHEMBL5442219 can be followed below.

Holding throughout (conditions): Compound concentration 10 µM
For assay [1], the target named is T1, Alpha-1A adrenergic receptor (Homo sapiens) (UniProt P35348).
T1 sequence (whole entry): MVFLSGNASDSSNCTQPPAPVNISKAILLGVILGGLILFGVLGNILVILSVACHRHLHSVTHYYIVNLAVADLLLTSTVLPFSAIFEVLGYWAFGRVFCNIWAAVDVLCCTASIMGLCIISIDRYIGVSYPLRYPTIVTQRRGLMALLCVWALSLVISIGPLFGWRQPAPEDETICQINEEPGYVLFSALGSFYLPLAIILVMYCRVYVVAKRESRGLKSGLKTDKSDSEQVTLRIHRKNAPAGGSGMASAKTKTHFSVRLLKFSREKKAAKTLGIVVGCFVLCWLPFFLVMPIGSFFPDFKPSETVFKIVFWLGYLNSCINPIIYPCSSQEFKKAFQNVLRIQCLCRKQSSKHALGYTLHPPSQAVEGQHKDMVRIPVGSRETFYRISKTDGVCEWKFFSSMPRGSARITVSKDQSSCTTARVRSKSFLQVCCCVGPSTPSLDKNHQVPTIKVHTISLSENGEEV
Description: PDSP Primary Binding target: ADRA1A - Compounds are tested at 10 uM concentration, plate are incubated at room temperature in the dark for 90 minutes. Reaction are stopped by vacuum filtration onto 0.3% polyethyleneimine soaked filter mats using Filtermate harvester. Scintilation cocktail is then melted onto microwave-dried filters on a hot plate and the radio activity is counted in Microbia counter.

For assay [2], the target named is Muscarinic acetylcholine receptor M3 (Homo sapiens) (UniProt P20309).
Muscarinic acetylcholine receptor M3 (Homo sapiens), sequence (P20309 whole entry, looked up): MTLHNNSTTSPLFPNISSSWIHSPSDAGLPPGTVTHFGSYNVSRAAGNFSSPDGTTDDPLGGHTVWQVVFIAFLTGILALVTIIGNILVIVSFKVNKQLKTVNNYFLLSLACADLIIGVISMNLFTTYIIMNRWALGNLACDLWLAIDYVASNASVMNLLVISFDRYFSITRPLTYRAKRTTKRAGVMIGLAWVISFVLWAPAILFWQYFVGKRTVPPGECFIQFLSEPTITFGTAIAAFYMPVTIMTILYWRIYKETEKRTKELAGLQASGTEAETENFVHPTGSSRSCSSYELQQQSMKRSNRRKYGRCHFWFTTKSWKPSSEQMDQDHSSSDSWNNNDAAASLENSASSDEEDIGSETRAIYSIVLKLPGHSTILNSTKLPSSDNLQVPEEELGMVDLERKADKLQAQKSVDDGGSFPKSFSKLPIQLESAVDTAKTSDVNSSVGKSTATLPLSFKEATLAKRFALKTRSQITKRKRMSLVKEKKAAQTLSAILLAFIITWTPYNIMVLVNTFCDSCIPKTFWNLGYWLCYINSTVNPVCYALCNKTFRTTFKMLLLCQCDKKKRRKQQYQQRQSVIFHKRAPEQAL
Description: PDSP Primary Binding target: CHRM3 - Compounds are tested at 10 uM concentration, plate are incubated at room temperature in the dark for 90 minutes. Reaction are stopped by vacuum filtration onto 0.3% polyethyleneimine soaked filter mats using Filtermate harvester. Scintilation cocktail is then melted onto microwave-dried filters on a hot plate and the radio activity is counted in Microbia counter.
Assay [3] has as its target T2, Muscarinic acetylcholine receptor M4 (Homo sapiens) (UniProt P08173).
T2 sequence (whole entry): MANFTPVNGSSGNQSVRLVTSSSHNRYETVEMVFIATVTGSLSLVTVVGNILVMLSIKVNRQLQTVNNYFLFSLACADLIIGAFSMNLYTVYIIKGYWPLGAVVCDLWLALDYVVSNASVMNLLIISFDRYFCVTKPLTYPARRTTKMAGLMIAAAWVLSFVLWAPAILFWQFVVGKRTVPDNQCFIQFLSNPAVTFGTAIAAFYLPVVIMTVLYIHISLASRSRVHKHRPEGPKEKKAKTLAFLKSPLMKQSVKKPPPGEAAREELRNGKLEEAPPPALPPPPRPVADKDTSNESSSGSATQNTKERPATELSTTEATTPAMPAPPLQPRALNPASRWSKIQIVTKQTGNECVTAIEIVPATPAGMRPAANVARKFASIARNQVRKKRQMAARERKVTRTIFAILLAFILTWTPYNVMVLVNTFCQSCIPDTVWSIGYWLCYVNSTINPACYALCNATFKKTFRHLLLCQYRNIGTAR
Description: PDSP Primary Binding target: CHRM4 - Compounds are tested at 10 uM concentration, plate are incubated at room temperature in the dark for 90 minutes. Reaction are stopped by vacuum filtration onto 0.3% polyethyleneimine soaked filter mats using Filtermate harvester. Scintilation cocktail is then melted onto microwave-dried filters on a hot plate and the radio activity is counted in Microbia counter.

The target in assay [4] is T3, Muscarinic acetylcholine receptor M5 (Homo sapiens) (UniProt P08912).
T3 sequence (whole entry): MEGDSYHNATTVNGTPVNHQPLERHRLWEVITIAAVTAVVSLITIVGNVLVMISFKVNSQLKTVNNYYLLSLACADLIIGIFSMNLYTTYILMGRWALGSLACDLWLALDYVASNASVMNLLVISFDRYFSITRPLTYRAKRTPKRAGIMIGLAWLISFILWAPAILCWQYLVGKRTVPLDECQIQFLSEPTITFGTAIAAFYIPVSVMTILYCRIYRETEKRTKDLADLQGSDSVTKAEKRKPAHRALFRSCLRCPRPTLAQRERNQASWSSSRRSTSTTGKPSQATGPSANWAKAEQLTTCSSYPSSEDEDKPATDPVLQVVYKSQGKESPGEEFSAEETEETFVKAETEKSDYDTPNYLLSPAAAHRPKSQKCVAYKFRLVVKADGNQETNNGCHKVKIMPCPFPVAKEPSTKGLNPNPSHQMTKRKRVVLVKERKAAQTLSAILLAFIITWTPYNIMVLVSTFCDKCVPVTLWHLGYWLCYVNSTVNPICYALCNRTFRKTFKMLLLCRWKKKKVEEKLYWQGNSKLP
Description: PDSP Primary Binding target: CHRM5 - Compounds are tested at 10 uM concentration, plate are incubated at room temperature in the dark for 90 minutes. Reaction are stopped by vacuum filtration onto 0.3% polyethyleneimine soaked filter mats using Filtermate harvester. Scintilation cocktail is then melted onto microwave-dried filters on a hot plate and the radio activity is counted in Microbia counter.

Assay [5] deals with D(1A) dopamine receptor (Homo sapiens) (UniProt P21728).
D(1A) dopamine receptor (Homo sapiens), sequence (P21728 whole entry): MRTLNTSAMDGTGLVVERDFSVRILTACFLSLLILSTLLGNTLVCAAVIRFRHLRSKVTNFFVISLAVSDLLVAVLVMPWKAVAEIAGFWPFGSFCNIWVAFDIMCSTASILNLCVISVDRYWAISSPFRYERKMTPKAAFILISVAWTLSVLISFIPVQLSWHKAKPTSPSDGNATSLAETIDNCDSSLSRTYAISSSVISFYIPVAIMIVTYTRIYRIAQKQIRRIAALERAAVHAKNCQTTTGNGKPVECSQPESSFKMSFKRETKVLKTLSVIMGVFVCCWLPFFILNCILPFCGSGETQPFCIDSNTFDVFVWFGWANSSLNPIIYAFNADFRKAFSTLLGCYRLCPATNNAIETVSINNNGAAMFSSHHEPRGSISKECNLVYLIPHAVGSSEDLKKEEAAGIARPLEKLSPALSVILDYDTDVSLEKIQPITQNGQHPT
Description: PDSP Primary Binding target: DRD1 - Compounds are tested at 10 uM concentration, plate are incubated at room temperature in the dark for 90 minutes. Reaction are stopped by vacuum filtration onto 0.3% polyethyleneimine soaked filter mats using Filtermate harvester. Scintilation cocktail is then melted onto microwave-dried filters on a hot plate and the radio activity is counted in Microbia counter.
In assay [6] the target is D(2) dopamine receptor (Homo sapiens) (UniProt P14416).
D(2) dopamine receptor (Homo sapiens), sequence (P14416 whole entry): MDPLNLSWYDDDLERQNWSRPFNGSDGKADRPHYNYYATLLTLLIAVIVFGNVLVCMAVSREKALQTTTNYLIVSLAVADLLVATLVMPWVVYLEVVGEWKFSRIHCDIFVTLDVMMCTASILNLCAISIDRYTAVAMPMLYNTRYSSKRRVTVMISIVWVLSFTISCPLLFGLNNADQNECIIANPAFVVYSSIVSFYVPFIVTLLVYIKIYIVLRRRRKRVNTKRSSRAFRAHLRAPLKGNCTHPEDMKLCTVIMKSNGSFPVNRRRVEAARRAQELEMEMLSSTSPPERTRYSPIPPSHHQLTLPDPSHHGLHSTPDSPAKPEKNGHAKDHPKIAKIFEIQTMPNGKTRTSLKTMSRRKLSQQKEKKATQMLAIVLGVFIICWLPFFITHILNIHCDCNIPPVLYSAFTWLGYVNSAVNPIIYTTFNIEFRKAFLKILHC
Description: PDSP Primary Binding target: DRD2 - Compounds are tested at 10 uM concentration, plate are incubated at room temperature in the dark for 90 minutes. Reaction are stopped by vacuum filtration onto 0.3% polyethyleneimine soaked filter mats using Filtermate harvester. Scintilation cocktail is then melted onto microwave-dried filters on a hot plate and the radio activity is counted in Microbia counter.
Assay [7] has as its target D(1B) dopamine receptor (Homo sapiens) (UniProt P21918).
Description: PDSP Primary Binding target: DRD5 - Compounds are tested at 10 uM concentration, plate are incubated at room temperature in the dark for 90 minutes. Reaction are stopped by vacuum filtration onto 0.3% polyethyleneimine soaked filter mats using Filtermate harvester. Scintilation cocktail is then melted onto microwave-dried filters on a hot plate and the radio activity is counted in Microbia counter.
The target of assay [8] is Histamine H3 receptor (Homo sapiens) (UniProt Q9Y5N1).
Histamine H3 receptor (Homo sapiens), sequence (Q9Y5N1 whole entry): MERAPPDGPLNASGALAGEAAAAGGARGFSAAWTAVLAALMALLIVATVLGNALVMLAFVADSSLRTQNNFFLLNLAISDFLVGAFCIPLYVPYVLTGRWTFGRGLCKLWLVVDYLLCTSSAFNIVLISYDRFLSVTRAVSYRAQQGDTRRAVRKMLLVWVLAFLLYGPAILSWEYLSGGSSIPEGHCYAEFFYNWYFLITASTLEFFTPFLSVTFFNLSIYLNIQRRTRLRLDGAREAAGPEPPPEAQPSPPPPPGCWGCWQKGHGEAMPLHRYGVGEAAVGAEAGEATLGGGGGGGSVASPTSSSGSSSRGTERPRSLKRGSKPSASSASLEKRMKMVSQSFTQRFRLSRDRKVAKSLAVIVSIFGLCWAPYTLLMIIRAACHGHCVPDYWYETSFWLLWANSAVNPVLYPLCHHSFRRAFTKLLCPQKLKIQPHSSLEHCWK
Description: PDSP Primary Binding target: HRH3 - Compounds are tested at 10 uM concentration, plate are incubated at room temperature in the dark for 90 minutes. Reaction are stopped by vacuum filtration onto 0.3% polyethyleneimine soaked filter mats using Filtermate harvester. Scintilation cocktail is then melted onto microwave-dried filters on a hot plate and the radio activity is counted in Microbia counter.
The target in assay [9] is 5-hydroxytryptamine receptor 1B (Homo sapiens) (UniProt P28222).
Description: PDSP Primary Binding target: HTR1B - Compounds are tested at 10 uM concentration, plate are incubated at room temperature in the dark for 90 minutes. Reaction are stopped by vacuum filtration onto 0.3% polyethyleneimine soaked filter mats using Filtermate harvester. Scintilation cocktail is then melted onto microwave-dried filters on a hot plate and the radio activity is counted in Microbia counter.
Assay [10] concerns the target 5-hydroxytryptamine receptor 1D (Homo sapiens) (UniProt P28221).
Description: PDSP Primary Binding target: HTR1D - Compounds are tested at 10 uM concentration, plate are incubated at room temperature in the dark for 90 minutes. Reaction are stopped by vacuum filtration onto 0.3% polyethyleneimine soaked filter mats using Filtermate harvester. Scintilation cocktail is then melted onto microwave-dried filters on a hot plate and the radio activity is counted in Microbia counter.
Assay [11] concerns the target 5-hydroxytryptamine receptor 7 (Homo sapiens) (UniProt P34969).
Description: PDSP Primary Binding target: HTR7 - Compounds are tested at 10 uM concentration, plate are incubated at room temperature in the dark for 90 minutes. Reaction are stopped by vacuum filtration onto 0.3% polyethyleneimine soaked filter mats using Filtermate harvester. Scintilation cocktail is then melted onto microwave-dried filters on a hot plate and the radio activity is counted in Microbia counter.
Assay [12] addresses Sigma non-opioid intracellular receptor 1 (Homo sapiens) (UniProt Q99720).
Description: PDSP Primary Binding target: SIGMAR1 - Compounds are tested at 10 uM concentration, plate are incubated at room temperature in the dark for 90 minutes. Reaction are stopped by vacuum filtration onto 0.3% polyethyleneimine soaked filter mats using Filtermate harvester. Scintilation cocktail is then melted onto microwave-dried filters on a hot plate and the radio activity is counted in Microbia counter.
For assay [13], the target named is Sodium-dependent noradrenaline transporter (Homo sapiens) (UniProt P23975).
Sodium-dependent noradrenaline transporter (Homo sapiens), sequence (P23975 whole entry): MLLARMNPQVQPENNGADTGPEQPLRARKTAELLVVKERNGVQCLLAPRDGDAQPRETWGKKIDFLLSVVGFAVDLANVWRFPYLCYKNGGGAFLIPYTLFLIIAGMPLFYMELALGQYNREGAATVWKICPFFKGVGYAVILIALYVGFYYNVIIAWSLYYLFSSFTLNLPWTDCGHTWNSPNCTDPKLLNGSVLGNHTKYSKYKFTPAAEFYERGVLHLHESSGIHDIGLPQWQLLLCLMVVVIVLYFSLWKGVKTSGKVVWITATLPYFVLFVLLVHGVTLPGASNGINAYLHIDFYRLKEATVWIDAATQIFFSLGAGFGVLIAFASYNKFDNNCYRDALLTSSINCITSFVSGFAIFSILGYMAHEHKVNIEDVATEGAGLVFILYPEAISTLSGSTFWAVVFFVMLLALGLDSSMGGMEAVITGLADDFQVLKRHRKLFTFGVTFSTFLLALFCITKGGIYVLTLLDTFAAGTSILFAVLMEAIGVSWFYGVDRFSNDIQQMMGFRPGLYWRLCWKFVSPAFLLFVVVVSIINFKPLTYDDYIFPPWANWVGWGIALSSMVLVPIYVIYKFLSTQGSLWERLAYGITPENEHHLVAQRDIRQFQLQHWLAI
Description: PDSP Primary Binding target: SLC6A2 - Compounds are tested at 10 uM concentration, plate are incubated at room temperature in the dark for 90 minutes. Reaction are stopped by vacuum filtration onto 0.3% polyethyleneimine soaked filter mats using Filtermate harvester. Scintilation cocktail is then melted onto microwave-dried filters on a hot plate and the radio activity is counted in Microbia counter.
The target of assay [14] is Beta-3 adrenergic receptor (Homo sapiens) (UniProt P13945).
Beta-3 adrenergic receptor (Homo sapiens), sequence (P13945 whole entry, looked up): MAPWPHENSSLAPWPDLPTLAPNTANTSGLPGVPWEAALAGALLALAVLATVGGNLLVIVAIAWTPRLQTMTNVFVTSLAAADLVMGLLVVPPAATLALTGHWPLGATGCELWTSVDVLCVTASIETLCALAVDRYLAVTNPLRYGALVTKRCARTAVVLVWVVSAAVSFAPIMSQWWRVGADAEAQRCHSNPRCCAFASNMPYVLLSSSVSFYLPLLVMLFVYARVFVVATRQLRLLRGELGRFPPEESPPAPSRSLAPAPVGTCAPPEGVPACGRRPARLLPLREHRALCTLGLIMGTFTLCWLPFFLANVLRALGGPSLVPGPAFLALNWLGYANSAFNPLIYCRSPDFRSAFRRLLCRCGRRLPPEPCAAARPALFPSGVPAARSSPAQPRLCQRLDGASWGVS
Description: PDSP Primary Binding target: ADRB3 - Compounds are tested at 10 uM concentration, plate are incubated at room temperature in the dark for 90 minutes. Reaction are stopped by vacuum filtration onto 0.3% polyethyleneimine soaked filter mats using Filtermate harvester. Scintilation cocktail is then melted onto microwave-dried filters on a hot plate and the radio activity is counted in Microbia counter.
Assay [15] deals with Histamine H2 receptor (Homo sapiens) (UniProt P25021).
Description: PDSP Primary Binding target: HRH2 - Compounds are tested at 10 uM concentration, plate are incubated at room temperature in the dark for 90 minutes. Reaction are stopped by vacuum filtration onto 0.3% polyethyleneimine soaked filter mats using Filtermate harvester. Scintilation cocktail is then melted onto microwave-dried filters on a hot plate and the radio activity is counted in Microbia counter.
For assay [16], the target named is Beta-1 adrenergic receptor (Homo sapiens) (UniProt P08588).
Description: PDSP Primary Binding target: ADRB1 - Compounds are tested at 10 uM concentration, plate are incubated at room temperature in the dark for 90 minutes. Reaction are stopped by vacuum filtration onto 0.3% polyethyleneimine soaked filter mats using Filtermate harvester. Scintilation cocktail is then melted onto microwave-dried filters on a hot plate and the radio activity is counted in Microbia counter.
For assay [17], the target named is T4, Muscarinic acetylcholine receptor M1 (Homo sapiens) (UniProt P11229).
T4 sequence (whole entry): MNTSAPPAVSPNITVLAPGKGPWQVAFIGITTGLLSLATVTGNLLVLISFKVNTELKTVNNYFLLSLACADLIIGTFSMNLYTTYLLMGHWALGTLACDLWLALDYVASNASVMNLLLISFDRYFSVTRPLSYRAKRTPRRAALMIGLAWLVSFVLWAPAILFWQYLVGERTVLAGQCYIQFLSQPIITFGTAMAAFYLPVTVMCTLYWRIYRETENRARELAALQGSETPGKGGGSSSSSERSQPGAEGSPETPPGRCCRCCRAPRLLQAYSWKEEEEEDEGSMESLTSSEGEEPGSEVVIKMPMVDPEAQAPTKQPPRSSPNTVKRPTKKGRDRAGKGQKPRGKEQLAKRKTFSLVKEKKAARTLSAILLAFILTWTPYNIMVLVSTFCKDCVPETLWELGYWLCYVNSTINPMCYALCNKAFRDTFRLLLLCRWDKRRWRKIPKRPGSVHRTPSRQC
Description: PDSP Primary Binding target: CHRM1 - Compounds are tested at 10 uM concentration, plate are incubated at room temperature in the dark for 90 minutes. Reaction are stopped by vacuum filtration onto 0.3% polyethyleneimine soaked filter mats using Filtermate harvester. Scintilation cocktail is then melted onto microwave-dried filters on a hot plate and the radio activity is counted in Microbia counter.

Assay [18] deals with Sodium-dependent dopamine transporter (Homo sapiens) (UniProt Q01959).
Sodium-dependent dopamine transporter (Homo sapiens), sequence (Q01959 whole entry): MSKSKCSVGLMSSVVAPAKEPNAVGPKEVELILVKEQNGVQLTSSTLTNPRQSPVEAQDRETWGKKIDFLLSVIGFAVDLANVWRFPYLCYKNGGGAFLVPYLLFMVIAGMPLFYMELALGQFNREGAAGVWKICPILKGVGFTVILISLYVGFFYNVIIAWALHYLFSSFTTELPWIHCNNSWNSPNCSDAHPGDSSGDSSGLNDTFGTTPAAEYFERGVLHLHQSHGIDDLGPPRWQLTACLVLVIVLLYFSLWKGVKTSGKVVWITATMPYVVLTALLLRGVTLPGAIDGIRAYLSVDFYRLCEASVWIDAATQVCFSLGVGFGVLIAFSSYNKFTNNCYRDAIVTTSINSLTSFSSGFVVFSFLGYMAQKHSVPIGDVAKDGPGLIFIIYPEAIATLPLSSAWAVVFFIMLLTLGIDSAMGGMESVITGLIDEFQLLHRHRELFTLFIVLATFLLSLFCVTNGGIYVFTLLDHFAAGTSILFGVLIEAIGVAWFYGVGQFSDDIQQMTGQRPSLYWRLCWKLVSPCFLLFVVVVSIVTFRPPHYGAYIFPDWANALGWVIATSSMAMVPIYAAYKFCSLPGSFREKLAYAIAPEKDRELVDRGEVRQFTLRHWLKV
Description: PDSP Primary Binding target: SLC6A3 - Compounds are tested at 10 uM concentration, plate are incubated at room temperature in the dark for 90 minutes. Reaction are stopped by vacuum filtration onto 0.3% polyethyleneimine soaked filter mats using Filtermate harvester. Scintilation cocktail is then melted onto microwave-dried filters on a hot plate and the radio activity is counted in Microbia counter.

By inhibition is commonly meant the drop in the measured response relative to a control, in per cent.

Sigma non-opioid intracellular receptor 1 (Homo sapiens), sequence (Q99720 whole entry): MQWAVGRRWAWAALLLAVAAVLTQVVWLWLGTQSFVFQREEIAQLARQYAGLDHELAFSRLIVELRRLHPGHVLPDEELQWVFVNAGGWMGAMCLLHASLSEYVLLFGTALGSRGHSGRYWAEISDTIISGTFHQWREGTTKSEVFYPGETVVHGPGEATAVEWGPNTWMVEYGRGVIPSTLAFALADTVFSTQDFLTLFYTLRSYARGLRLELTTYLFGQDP
D(1B) dopamine receptor (Homo sapiens), sequence (P21918 whole entry): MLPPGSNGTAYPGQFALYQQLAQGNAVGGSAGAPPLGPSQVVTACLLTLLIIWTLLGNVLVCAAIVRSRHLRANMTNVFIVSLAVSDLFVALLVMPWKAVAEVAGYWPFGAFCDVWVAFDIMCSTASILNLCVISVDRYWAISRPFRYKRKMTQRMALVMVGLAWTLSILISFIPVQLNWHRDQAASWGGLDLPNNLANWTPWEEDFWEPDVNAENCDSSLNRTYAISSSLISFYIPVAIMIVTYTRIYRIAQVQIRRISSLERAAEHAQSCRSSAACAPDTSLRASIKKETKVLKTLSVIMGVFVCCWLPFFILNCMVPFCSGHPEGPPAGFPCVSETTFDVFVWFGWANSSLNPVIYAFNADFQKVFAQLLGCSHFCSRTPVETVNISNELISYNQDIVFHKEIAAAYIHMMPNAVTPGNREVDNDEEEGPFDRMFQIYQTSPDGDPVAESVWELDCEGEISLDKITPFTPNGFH
5-hydroxytryptamine receptor 7 (Homo sapiens), sequence (P34969 whole entry): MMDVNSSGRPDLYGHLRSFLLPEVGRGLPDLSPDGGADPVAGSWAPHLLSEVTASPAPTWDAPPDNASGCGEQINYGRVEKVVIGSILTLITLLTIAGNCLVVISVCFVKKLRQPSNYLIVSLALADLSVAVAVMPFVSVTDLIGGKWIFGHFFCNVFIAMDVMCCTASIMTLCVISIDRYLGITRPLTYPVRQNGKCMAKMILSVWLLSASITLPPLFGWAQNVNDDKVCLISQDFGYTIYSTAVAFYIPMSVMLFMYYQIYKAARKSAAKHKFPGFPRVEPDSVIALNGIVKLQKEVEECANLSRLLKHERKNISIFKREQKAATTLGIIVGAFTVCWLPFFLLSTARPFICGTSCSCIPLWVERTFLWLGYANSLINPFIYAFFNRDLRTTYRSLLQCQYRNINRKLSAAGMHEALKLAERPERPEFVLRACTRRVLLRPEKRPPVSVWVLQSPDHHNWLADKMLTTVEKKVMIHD

Turning to `Cc1ccc2c(c1)c1c(n2CCc2ccc(C)nc2)CCN(C)C1`, the inhibition is 88.6% in assay [1]; 18% in assay [2]; 5.78% in [3]; -2.89% in assay [4]; 39.2% in assay [5]; 57.8% in [6]. Further, the inhibition was 32.6% in [7]; 16.2% in [8]; 74.3% in assay [9]; 70.8% in [10]; 90.7% in assay [11]; 71.7% in [12]. Also, the inhibition is -7.44% in [13], 0.23% in [14] and 96.5% in assay [15].

Consider `C[C@]1(C(=O)N(CCCC(=O)O)Cc2cccc(Cl)c2)CCN1C(=O)c1csc2ccccc12`, for which the inhibition in assay [1] was -4.07%; in [16], 1.62%; in [17], 5.11%; in assay [3] it was 27.1%; in assay [4], -2.06%; in assay [5] it was -1.97%. The inhibition was -7.68% in assay [6]; -8.24% in assay [7]; -8.42% in assay [8]; 32.5% in assay [12]; 13% in assay [18]; -0.98% in [14]. Moreover, in assay [15], the inhibition is 19.3%.

Regarding `Clc1ccc(CCCOCCCN2CCCCC2)cc1`, the inhibition in [1] was -2.04%; in assay [17] it was 24.5%; in assay [2], 44.5%; in assay [3] it was 76.8%; in assay [4] it was 23.1%; in assay [5], 12.1%. Moreover, the inhibition in assay [6] is 6.98%; in [8], 79.8%; in assay [9], 12.1%; in assay [10] it was 16.4%; in assay [11] it was 63.3%; in assay [12], 99.5%. Besides, the inhibition in assay [13] was 64.5%; in assay [18], 25.6%; in assay [14], 1.84%; in assay [15], 33%.

For the compound `Cc1c(F)cccc1NC(=O)Nc1ccc(Cl)c(S(=O)(=O)[C@H]2CCCNC2)c1O`, the inhibition is 19.2% in assay [1]; 22.8% in assay [2]; -3.99% in assay [3]; 11.7% in [6]; 3.67% in assay [7]; 8.6% in assay [9]. For the same compound, the inhibition is -2.39% in assay [10]; -3.91% in assay [11]; 9.71% in assay [12]; 14.9% in [18]; 17.8% in assay [14]; 18.3% in assay [15].

Take `CNc1nc(NCc2ccc(NS(C)(=O)=O)cc2Cl)cc(-c2ccccn2)n1`: the inhibition in assay [1] is 8%; in assay [17], 9.22%; in assay [2], -1.96%; in assay [3] it was 9.44%; in assay [4], 6.84%; in [5], 7.8%. Also, the inhibition in assay [6] is -4.41%; in [8], -8.26%; in assay [9], 3.99%; in assay [10], 0.67%; in [11], 77.9%; in assay [12] it was 87.2%. The inhibition was 24% in assay [13], 47.6% in assay [18], 15% in [14] and 18% in assay [15].

Consider `CN1CCCC(n2nc(Cc3ccc(Cl)cc3)c3ccccc3c2=O)CC1` (centres undefined), for which the inhibition is 87.7% in assay [1]; 82.9% in assay [17]; 57.3% in assay [2]; 83.7% in assay [3]; 43.1% in [4]; 57.1% in [5]. In addition, the inhibition in [6] was 79.1%; in assay [7], 24.1%; in assay [8] it was 28.5%; in assay [9], 66.5%; in [10] it was 57.9%; in assay [11] it was 80.4%. The inhibition in assay [12] is 91.9%; in [13] it was 31.6%; in assay [18] it was 25.9%; in assay [14], 61.5%; in assay [15], 22.8%.

For the compound `CC1=C2C[C@H]3[C@@H](CC=C4C[C@@H](O)CC[C@@]43C)[C@@H]2CC[C@]12O[C@@H]1C[C@H](C)CN[C@H]1[C@H]2C`, the inhibition in assay [16] was -3.27%; in assay [17] it was 22.8%; in assay [2], -6.3%; in assay [3], -3.11%; in assay [5], -4.8%; in assay [6] it was 13.2%. Moreover, the inhibition in assay [7] is 1.59%; in [8], 32.2%; in [12], 10.2%; in assay [14] it was 38.6%; in assay [15], 20.5%.

Regarding `CS(=O)(=O)NC[C@H]1CC[C@H](Nc2nc3c(s2)CCSc2ccccc2-3)CC1`, the inhibition in assay [1] was -9.44%; in [17], -1.96%; in [2] it was -7.8%; in [4], -4.92%; in assay [5], 14.1%; in assay [6], 4.83%. The inhibition was -6.36% in assay [7]; -7.45% in [8]; 50.8% in assay [10]; 39.7% in assay [11]; 45.3% in assay [12]; 7.48% in [13]. The inhibition in [18] is 3.98%; in assay [14], 45.4%; in assay [15], -2.3%.

As to `CCC[C@H](Oc1cc(C)c(-n2cc(C(F)(F)F)cn2)c(C)c1)c1ccc(C(=O)NCCC(=O)O)cc1`, the inhibition in [1] is 8.94%; in assay [17], 28%; in assay [2], -0.42%; in assay [3] it was 3.44%; in assay [4] it was 70.1%; in assay [5], 20.2%. Moreover, the inhibition in assay [6] is 8.21%; in [7], 11.7%; in [8], 11.1%; in assay [9] it was 12.2%; in assay [11], -2.87%; in assay [12], 1.84%. Moreover, the inhibition in assay [14] is 65.4%; in assay [15], -8.24%.
